Source: patent US20030073705A1, “Method of treatment” (priority 2001, published 2003)

Tests used:
[1] = test system: patients with Type 2 diabetes and nephropathy; assay: Triple-blind, randomized, placebo-controlled study: primary composite endpoint (doubling of serum creatinine, end stage renal disease or death) and components; type: in vivo, human
Protocol: (§1) The study involved male and female patients ranging in age from 31 to 70 years diagnosed with Type 2 diabetes and nephropathy; the latter defined as two urine albumin:creatinine ratios from a first morning specimen >300 mg/g (34 mg/mmol) (or a 24-hr urine protein >=500 mg (0.5 g/day)) and two serum creatinine values between 1.3 and 3.0 mg/dL (115 and 265 μmol/L) (lower limit of 1.5 mg/dL (133 μmol/L)for males >60 kg). […] Journal of the Renin Angiotensin Aldosterone System 2000;1(4):328-35. Patients were excluded from the study if diagnosed with Type 1 diabetes or nondiabetic renal disease, including renal artery stenosis. Patients with a history of heart failure, myocardial infarction or coronary artery bypass grafting within 1 month, cerebral vascular accident or percutaneous transluminal coronary angioplasty within 6 months or transient ischemic attacks within 1 year prior to enrollment were excluded.
(§2) During the 6-week screening phase, hypertensive patients continued to take their standard antihypertensive therapy. However, in those patients taking angiotensin I converting enzyme inhibitors or angiotensin II receptor antagonists, these agents were discontinued at the beginning of the screening phase and replaced by alternative open-label therapy at the investigator's discretion (diuretic, calcium-channel antagonist, α- or β-blocker, and/or centrally acting agent). […] After an additional 8 weeks, further antihypertensive therapy with agents described above (exclusive of angiotensin I converting enzyme inhibitors or angiotensin II receptor antagonists), were added or increased in dosage to achieve the goal trough sitting blood pressure.
(§3) Throughout the study, patients received standard medical care for treatment of diabetes, including routine measurements of HbAlc and fasting serum glucose concentrations. Study visits were scheduled every 3 months or more frequently if necessary for monitoring trough sitting blood pressure control, changes in laboratory measurements, adverse experiences and endpoints. Patients who discontinued early from blinded study therapy were followed every 3 months until study end for primary and secondary endpoints, blood pressure control and laboratory measurements. Those who could not return for clinic visits were contacted by telephone for endpoints of dialysis, renal transplantation or death.
(§4) The primary efficacy parameter was a composite endpoint of time to the first event of doubling of serum creatinine concentration, end stage renal disease, or death. End stage renal disease was defined as the need for chronic dialysis or renal transplantation. The prespecified secondary endpoint, cardiovascular morbidity and mortality, was a composite of myocardial infarction, stroke, hospitalization for heart failure or unstable angina, coronary or peripheral revascularization, and death from cardiovascular-related causes. Analyses of the components of both the primary and secondary composite endpoints also were prespecified. Other secondary endpoints included progression of renal disease as assessed by the slope of the reciprocal of serum creatinine concentration and changes in proteinuria. (See Mitch W E, Walser M, Buffington G A, Lemann J Jr. A simple method of estimating progression of chronic renal failure. Lancet 1976;2:1326-8.) An independent, blinded endpoint committee adjudicated all potential clinical endpoints occurring from the time of randomization until study termination.
(§5) A supportive, per-protocol analysis excluded patients who violated the inclusion/exclusion criteria, and censored patients 14 days after permanent discontinuation of study medication.

[2] = test system: patients with Type 2 diabetes and nephropathy; assay: Trough sitting blood pressure during the study; type: in vivo, human
Protocol: The results reported here represent a mean follow-up time of 3.4 years.
as §1, §2
as §3, with “death. […]” for “death.”

[3] = test system: patients with Type 2 diabetes and nephropathy; assay: Secondary endpoint: cardiovascular morbidity and mortality and components; type: in vivo, human
Protocol: as §1, §2, §4, §5

[4] = test system: patients with Type 2 diabetes and nephropathy; assay: Secondary endpoints: proteinuria and progression of renal disease (slope of reciprocal of serum creatinine); type: in vivo, human; conditions: on-treatment; p=0.01 versus placebo
Protocol: as §1
During the 6-week screening phase, hypertensive patients continued to take their standard antihypertensive therapy. […]
The primary efficacy parameter was a composite endpoint of time to the first event of doubling of serum creatinine concentration, end stage renal disease, or death. […] Other secondary endpoints included progression of renal disease as assessed by the slope of the reciprocal of serum creatinine concentration and changes in proteinuria. […]

[5] = test system: patients with Type 2 diabetes and nephropathy; assay: Discontinuation from study therapy and adverse experiences; conditions: n = 751
Protocol: as §1, §2, §3

[6] = intention-to-treat, n = 751, mean follow-up 3.4 years
[7] = losartan relative to placebo, p=0.010

2-N-butyl-4-chloro-5-hydroxymethyl-1-[(2′-(1H-tetrazol-5-yl)biphenyl-4-yl)-methyl]imidazole, potassium salt [Losartan]
Patients reaching primary composite endpoint (number) ([1]; intention-to-treat analysis): 327 patients | Patients reaching primary composite endpoint (percent) ([1]; intention-to-treat analysis): 43.5% | Primary composite endpoint, event rate ([1]; intention-to-treat analysis): 15.9 /100 patient years of follow-up | Doubling of sCr, ESRD or Death (composite primary endpoint), patients ([1]; intention-to-treat, losartan 50 to 100 mg once daily +CT, n = 751, mean follow-up 3.4 years): 327 (43.5) n (%) | Death, patients [1, 6]: 158 (21.0) n (%) | Doubling of sCr or ESRD, patients [1, 6]: 226 (30.1) n (%) | Doubling of sCr, patients [1, 6]: 162 (21.6) n (%) | ESRD or Death, patients [1, 6]: 255 (34.0) n (%) | ESRD, patients [1, 6]: 147 (19.6) n (%) | Risk Reduction, Doubling of sCr, ESRD or Death (composite primary endpoint) ([1]; losartan relative to placebo, intention-to-treat, Cox model, p=0.024): 16% | Risk Reduction, ESRD ([1]; losartan relative to placebo, p=0.002): 28% | Risk Reduction, Doubling of sCr ([1]; losartan relative to placebo, p=0.006): 25% | Risk Reduction, Doubling of sCr or ESRD [1, 7]: 21% | Risk Reduction, ESRD or Death [1, 7]: 20% | Risk Reduction, Death ([1]; losartan relative to placebo, p=0.882): −2% | Decrease in risk of primary composite endpoint after correcting for blood pressure ([1]; mean arterial pressure as time-varying covariate, p=0.034): 15% | Risk reduction in primary composite endpoint, per protocol analysis ([1]; patients who remained on treatment throughout the protocol, p=0.008): 22% | Effect in pre-defined subgroups (primary composite, ESRD, ESRD or death) ([1]; patients with baseline serum creatinine greater than 2.0 mg/dL and urine albumin:creatinine ratio greater than 2000 mg/g): particularly beneficial | Trough diastolic blood pressure ([2]; at 1 year, average): 78 mmHg | Trough systolic blood pressure ([2]; at 1 year, average): 146 mmHg | Mean arterial pressure ([2]; at 1 year, p<0.001 versus placebo): 100.9 mmHg | Pulse pressure ([2]; at 1 year, p=0.047 versus placebo): 67.8 mmHg | Trough diastolic blood pressure ([2]; at study end, average): 74 mmHg | Trough systolic blood pressure ([2]; at study end, average): 140 mmHg | Mean arterial pressure ([2]; at study end, p=0.59 versus placebo): 95.9 mmHg | Pulse pressure ([2]; at study end, p=0.77 versus placebo): 66.7 mmHg | Trough diastolic blood pressure ([2]; at year 2, average): 77 mmHg | Trough systolic blood pressure ([2]; at year 2, average): 143 mmHg | Pulse pressure ([2]; at year 2, p=0.37 versus placebo): 66.2 mmHg | Mean arterial pressure ([2]; at year 2, p=0.38 versus placebo): 99.1 mmHg | Composite endpoint of cardiovascular morbidity and mortality, difference versus placebo plus conventional therapy ([3]; losartan plus conventional therapy): no significant difference | Patients with myocardial infarction ([3]; mean follow-up 3.4 years): 50 patients | Patients with hospitalization for heart failure ([3]; time to first hospitalization, mean follow-up 3.4 years): 89 patients | Risk reduction, hospitalization for heart failure ([3]; versus placebo, p=0.005): 32% | Risk reduction, myocardial infarction ([3]; versus placebo, p=0.08, did not reach statistical significance): 28% | Risk reduction, fatal or non-fatal cardiovascular event ([3]; versus placebo, p=0.26): 9% | Rate of decline in renal function, median slope of reciprocal of serum creatinine concentration [4]: −0.056 dl/mg/yr | Discontinued for Any Reason ([5]; discontinuation from study therapy): 341 (45.4) n (%) | Clinical adverse experience causing discontinuation: End Stage Renal Disease [5]: 16 (2.1) n (%) | Clinical adverse experience causing discontinuation: Heart Failure [5]: 23 (3.0) n (%) | Clinical adverse experience causing discontinuation: Myocardial Infarction [5]: 7 (0.9) n (%) | Clinical adverse experience causing discontinuation: Stroke [5]: 9 (1.2) n (%) | Clinical adverse experience causing discontinuation: Worsening renal insufficiency [5]: 8 (1.1) n (%) | Discontinuation from study therapy: Clinical Adverse Experience [5]: 128 (17.0) n (%) | Discontinuation from study therapy: Deaths [5]: 65 (8.7) n (%) | Discontinuation from study therapy: Laboratory Adverse Experience [5]: 21 (2.8) n (%) | Laboratory adverse experience causing discontinuation: Hyperkalemia [5]: 9 (1.2) n (%)
